Here are results for one compound from PMC3083694, “Effects of Intermediates between Vitamins K2 and K3 on Mammalian DNA Polymerase Inhibition and Anti-Inflammatory Activity” (International Journal of Molecular Sciences, 2011).

The target in assay [1] is Calf Terminal deoxynucleotidyl transferase (Bos taurus, UniProt P06526). Description: DNA polymerase activity assay, calf TdT. It counts as biochemical. To be noted: X-family pol; read-out: IC50 Value of MK-2, Calf Terminal deoxynucleotidyl transferase. As to the method:
(§1) Pols from mammals, a fish (cherry salmon), an insect (fruit fly) and a plant (cauliflower) were purified, and prokaryotic pols and other DNA metabolic enzymes, such as T7 RNA polymerase, T4 polynucleotide kinase and bovine deoxyribonuclease I, were purchased as described in our previous report. The activities of all pols and other DNA metabolic enzymes were measured as described in previous reports.
The components of the pol assay were poly(dA)/oligo(dT)18 and dTTP as the DNA template-primer and 2′-deoxyribonucleoside 5′-triphosphate (dNTP) substrate, respectively. VK2, VK3, and their synthesized derivatives (i.e., MK-3, MK-2 and MK-1) were dissolved in dimethyl sulfoxide (DMSO) at various concentrations and sonicated for 30 s. The sonicated samples (4 μL) were mixed with 16 μL of each pol enzyme (final amount, 0.05 units) in 50 mM Tris-HCl (pH 7.5) containing 1 mM dithiothreitol, 50% glycerol and 0.1 mM EDTA, and kept at 0 °C for 10 min. […] Activity without the inhibitor was considered to be 100%, and the activity remaining at each concentration of inhibitor was determined relative to this value. […]

Assay [2] concerns LPS-induced TNF-α production in serum. The assay can be described thus: In vivo LPS-induced inflammatory experiment, serum TNF-α. Further details: species or system mouse. To be noted: female C57BL/6 mice; 100 mg/kg BW intraperitoneal, 30 min before LPS 250 μg/kg BW i.p.; serum 1 h after LPS. Here is the method:
All animal studies were performed according to the guidelines outlined in the “Care and Use of Laboratory Animals” of Kobe University. The animals were anesthetized with pentobarbital before undergoing cervical dislocation. Female 8-week-old C57BL/6 mice that had been bred in-house with free access to food and water were used for all experiments. All of the mice were maintained under a 12-h light/dark cycle and housed at a room temperature of 25 °C.
Mice were intraperitoneally injected with 200 μL of MK-2 dissolved in corn oil at 100 mg/kg body weight (BW), or 200 μL of corn oil as a vehicle control. After 30 min, the mice were intraperitoneally injected with 200 μL of 250 μg/kg BW LPS dissolved in PBS or 200 μL of PBS as a vehicle control. After 1 h, the mice were killed, and blood samples were collected. The blood serum was separated by centrifugation at 15,000 × g for 10 min at 4 °C, and the TNF-α level in the serum was measured by ELISA.

The next assay addresses T1, T4 polynucleotide kinase (Enterobacteria phage T4, UniProt P06855).
T1 construct: purchased
Description: DNA metabolic enzyme assay, T4 polynucleotide kinase. It counts as biochemical. The note with it: other DNA metabolic enzyme; read-out: IC50 Value of MK-2, T4 polynucleotide kinase. Here is the method: as §1

T1 sequence (P06855 whole entry): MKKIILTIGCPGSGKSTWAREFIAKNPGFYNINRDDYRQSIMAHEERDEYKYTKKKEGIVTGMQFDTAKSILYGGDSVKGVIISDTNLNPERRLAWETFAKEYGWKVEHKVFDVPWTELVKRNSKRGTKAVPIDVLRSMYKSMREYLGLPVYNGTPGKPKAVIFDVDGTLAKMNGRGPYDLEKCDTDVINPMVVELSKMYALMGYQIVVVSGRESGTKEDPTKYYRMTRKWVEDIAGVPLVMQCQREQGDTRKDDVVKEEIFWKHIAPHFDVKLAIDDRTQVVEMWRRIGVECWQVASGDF
Calf Terminal deoxynucleotidyl transferase, sequence (P06526 whole entry): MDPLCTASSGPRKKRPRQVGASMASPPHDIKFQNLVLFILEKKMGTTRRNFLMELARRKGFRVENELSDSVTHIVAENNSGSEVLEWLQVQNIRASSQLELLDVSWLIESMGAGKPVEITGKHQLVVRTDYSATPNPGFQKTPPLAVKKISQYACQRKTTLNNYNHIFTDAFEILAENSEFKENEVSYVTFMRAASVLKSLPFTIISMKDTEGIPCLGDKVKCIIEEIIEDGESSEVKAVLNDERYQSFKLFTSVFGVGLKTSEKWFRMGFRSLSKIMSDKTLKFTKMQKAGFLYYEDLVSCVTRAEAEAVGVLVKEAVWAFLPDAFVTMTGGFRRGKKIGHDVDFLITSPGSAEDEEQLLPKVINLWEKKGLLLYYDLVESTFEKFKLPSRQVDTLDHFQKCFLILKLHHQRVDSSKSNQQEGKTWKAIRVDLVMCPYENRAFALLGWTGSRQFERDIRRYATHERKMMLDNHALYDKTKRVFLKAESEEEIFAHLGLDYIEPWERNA

Usually IC50 stands for the point on the concentration scale where inhibition reaches its midpoint. With `CC(C)=CCC/C(C)=C/CC1=C(C)C(=O)c2ccccc2C1=O` [MK-2], the IC50 in assay [1] was 29.4 ± 1.7 µM; on T4 polynucleotide kinase, above 200 µM. Moreover, the “Decrease of LPS-induced serum TNF-α production” value in assay [2] is given as 83.2%.
